Results on 1 compound are retold here after patent publication US12440439B2, “Mesoporous sponge spicule and methods thereof” (Xiamen University, priority 2019, dated 2025).

The data set is described as follows: Transdermal penetration enhancement experiments in vitro (Franz diffusion transdermal device, tape peeling, microplate reader). It counts as in vitro ADME, pig. As to conditions: transdermal for 16 h. As to the method:
Among them, delivery system groups of the second group and the third group are saturated 30% ethanol solutions of the Coumarin 6, and delivery volumes are […].
The aforementioned layers are divided into groups, soaked in 4 mL of a mixture of the phosphate buffer solution and methanol (a volume ratio is 1:1) to respectively extract the Coumarin 6 in a 1st layer of stratum corneum (SC1), 2nd-5th layers of stratum corneum (SC2), 6th-10th layers of stratum corneum (SC3), the epidermal layer (Epi), and the dermal layer (Der) at 200 r/min (revolutions per minutes (rpm)) at room temperature (e.g., 20-30° C.).

For the compound `CCN(CC)c1ccc2cc(-c3nc4ccccc4s3)c(=O)oc2c1` [Control, Coumarin 6], the “Content of the Coumarin 6 in SC1” value (1st layer of stratum corneum) was 0.005 ± 0.001 μg/1.77 cm^2. Further, the “Content of the Coumarin 6 in SC2” value (2nd-5th layers of stratum corneum) stood at 0.009 ± 0.002 μg/1.77 cm^2. For the same compound, for the setting “6th-10th layers of stratum corneum”, the “Content of the Coumarin 6 in SC3” value was 0.019 ± 0.003 μg/1.77 cm^2. For the same compound, the “Content of the Coumarin 6, Total” value (all skin layers and receptor compartment) came out at 0.199 ± 0.047 μg/1.77 cm^2. Besides, the “Content of the Coumarin 6 in Der” value (dermal layer) came to 0.015 ± 0.011 μg/1.77 cm^2. In addition, the “Content of the Coumarin 6 in Epi” value (epidermal layer) is 0.021 ± 0.007 μg/1.77 cm^2. Further, the “Content of the Coumarin 6 in Rec” value (receptor compartment) stood at 0.130 ± 0.043 μg/1.77 cm^2.
